SMILES strings stand for the structures.

Common to all, as to assay type: in vivo
Test [1] has as its system Echinochloa oryzicola Vasing. (Eo). The test is described as follows: Test for herbicidal effect by paddy field soil treatment (Test Example 1). As to conditions: application amount (active ingredient) 100 g/10 a, examined at the 21st day from the treatment, index per Table 40. The method, then: <Test Example 1> Test For Herbicidal Effect By Paddy Field Soil Treatment A paddy field soil was filled in a plastic pot of 100 cm^2 and subjected to puddling. Then, seeds of Echinochloa oryzicola Vasing. (Eo) were sowed and water was filled in a depth of 3 cm. Next day, wettable powders produced in accordance with the Formulation 1 were diluted with water and dropped on the water surface. The application amount of each wettable powder was 100 g per 10 ares in terms of the active ingredient. Then, breeding was made in a greenhouse, and the herbicidal effect of each wettable powder was examined at the 21st day from the treatment in accordance with the standard shown in Table 40. [table]

Test [2] relates to Echinochloa crus-galli (L.) Beauv. var. crusgall (Ec). The test can be described thus: Test for herbicidal effect by upland field soil treatment (Test Example 2), Ec. The method, then: (§1) [table] <Test Example 2> Test For Herbicidal Effect By Upland Field Soil Treatment An upland field soil was filed in a plastic pot of 80 cm^2. Seeds of Echinochloa crus-galli (L.) Beauv. var. crusgall (Ec) and Setaria viridis (L.) Beauv. (Se) were sowed, followed by covering with the same soil. Wettable powders produced in accordance with the Formulation 1 were diluted with water and sprayed uniformly: on the soil surface using a small sprayer, in an amount of 100 liters per 10 ares so that the amount of each active ingredient became 100 g per 10 ares. Then, breeding was made in a greenhouse, and the herbicidal effect of each wettable powder was examined at the 21st day from the treatment in accordance with the standard shown in Table 40.

For test [3], the system named is Setaria viridis (L.) Beauv. (Se). The test can be described thus: Test for herbicidal effect by upland field soil treatment (Test Example 2), Se. The method, then: as §1
The subject of test [4] is Echinochloa crus-galli (L.) Beauv. var. crusgalli (Ec). The test can be described thus: Test for herbicidal effect by upland foliage treatment (Test Example 3). As to conditions: 100 g/10 a active ingredient, examined at 14th day. The method, then:
Test For Herbicidal Effect By Upland Foliage Treatment
An upland field soil was filed in a plastic pot of 80 cm^2. Seeds of Echinochloa crus-galli (L.) Beauv. var. crusgalli (Ec) were sowed. Breeding was made in a greenhouse for 2 weeks. Wettable powders produced in accordance with the Formulation 1 were diluted with water and sprayed on the whole foliage of plants from above the plants using a small sprayer in an amount of 100 liters per 10 ares so that the amount of each active ingredient became 100 g per 10 ares. Then, breeding was made in the greenhouse, and the herbicidal effect of each wettable powder was examined at the 14th day from the treatment in accordance with the standard shown in Table 40.

Where [5] appears, read: application amount (active ingredient) 100 g/10 a, examined at the 21st day from the treatment, index per Table 40.
Setting [6] is: 100 g/10 a active ingredient, examined at 21st day.

Consider `CC1(C)CC(S(=O)(=O)Cc2ccccc2)=NO1` [Compound 1-1], for which, in test [1], the “Herbicidal effect to Eo” value is given as 5 (A herbicidal effect or phytotoxicity of 90% or more). Further, the “Herbicidal effect to Ec” value in test [2] (setting [5]) and in test [4] was 5 (A herbicidal effect or phytotoxicity of 90% or more) in each case. Further, in test [3] (setting [5]), the “Herbicidal effect to Se” value is on record as 5 (A herbicidal effect or phytotoxicity of 90% or more).
Turning to `CC1(C)CC(S(=O)(=O)Cc2cccc(Cl)c2)=NO1` [Compound 1-3], in test [1], the “Herbicidal effect to Eo” value is 5 (A herbicidal effect or phytotoxicity of 90% or more). Further, the “Herbicidal effect to Ec” value in test [2] (setting [5]) is recorded as 5 (A herbicidal effect or phytotoxicity of 90% or more); in test [4] it was 4 (A herbicidal effect or phytotoxicity of 70% to less than 90%). The “Herbicidal effect to Se” value in test [3] (setting [5]) is 5 (A herbicidal effect or phytotoxicity of 90% or more).
Take `CC1(C)CC(S(=O)(=O)Cc2ccc(Cl)cc2)=NO1` [Compound 1-4]: the “Herbicidal effect to Eo” value in test [1] is recorded as 5 (A herbicidal effect or phytotoxicity of 90% or more). The “Herbicidal effect to Ec” value in test [2] (setting [5]) was 5 (A herbicidal effect or phytotoxicity of 90% or more); in test [4] it was 4 (A herbicidal effect or phytotoxicity of 70% to less than 90%). Further, the “Herbicidal effect to Se” value in test [3] (setting [5]) was 5 (A herbicidal effect or phytotoxicity of 90% or more).
As to `Cc1ccccc1CS(=O)(=O)C1=NOC(C)(C)C1` [Compound 1-5], in test [1], the “Herbicidal effect to Eo” value is 5 (A herbicidal effect or phytotoxicity of 90% or more). Also, the “Herbicidal effect to Ec” value in test [2] (setting [5]) and in test [4] was 5 (A herbicidal effect or phytotoxicity of 90% or more) throughout. Also, in test [3] (setting [5]), the “Herbicidal effect to Se” value is recorded as 5 (A herbicidal effect or phytotoxicity of 90% or more).
With `Cc1cccc(CS(=O)(=O)C2=NOC(C)(C)C2)c1` [Compound 1-6], the “Herbicidal effect to Eo” value in test [1] is recorded as 5 (A herbicidal effect or phytotoxicity of 90% or more). The entries for the “Herbicidal effect to Ec” value in test [2] (setting [5]) and in test [4] were 5 (A herbicidal effect or phytotoxicity of 90% or more) and 4 (A herbicidal effect or phytotoxicity of 70% to less than 90%), respectively. Besides, the “Herbicidal effect to Se” value in test [3] (setting [5]) is listed as 5 (A herbicidal effect or phytotoxicity of 90% or more).
`COCC1(C)CC(S(=O)(=O)Cc2c(F)cccc2F)=NO1` (stereo not shown) [Compound 1-397]: the “Herbicidal effect to Eo” value in test [1] was 5 (A herbicidal effect or phytotoxicity of 90% or more). Besides, in test [4], the “Herbicidal effect to Ec” value is 4 (A herbicidal effect or phytotoxicity of 70% to less than 90%).
Turning to `CCCCOc1cccc(F)c1CS(=O)(=O)C1=NOC(C)(C)C1` [Compound 1-571], the “Herbicidal effect to Eo” value in test [1] is 5 (A herbicidal effect or phytotoxicity of 90% or more). Besides, the “Herbicidal effect to Ec” value in test [2] (setting [6]) and in test [4] was 5 (A herbicidal effect or phytotoxicity of 90% or more) each time.
Take `Cc1ccc(C)c(CS(=O)(=O)C2=NOC(C)(C)C2)c1C` [Compound 1-616]: the “Herbicidal effect to Eo” value in test [1] is listed as 5 (A herbicidal effect or phytotoxicity of 90% or more). Besides, the “Herbicidal effect to Ec” value in test [2] (setting [6]) and in test [4] was 5 (A herbicidal effect or phytotoxicity of 90% or more) in each case.
In the case of `CCOC(=O)c1cccc(Cl)c1CS(=O)(=O)C1=NOC(C)(C)C1` [Compound 1-619], the “Herbicidal effect to Eo” value in test [1] is given as 5 (A herbicidal effect or phytotoxicity of 90% or more). Moreover, the “Herbicidal effect to Ec” value in test [2] (setting [6]) is 5 (A herbicidal effect or phytotoxicity of 90% or more). Also, the “Herbicidal effect to Se” value in test [3] (setting [6]) is listed as 4 (A herbicidal effect or phytotoxicity of 70% to less than 90%).
Take `CC(C)OC(=O)c1cccc(Cl)c1CS(=O)(=O)C1=NOC(C)(C)C1` [Compound 1-621]: the “Herbicidal effect to Eo” value in test [1] is listed as 5 (A herbicidal effect or phytotoxicity of 90% or more). The “Herbicidal effect to Ec” value in test [2] (setting [6]) is listed as 5 (A herbicidal effect or phytotoxicity of 90% or more). Also, the “Herbicidal effect to Se” value in test [3] (setting [6]) was 4 (A herbicidal effect or phytotoxicity of 70% to less than 90%).

The values above are taken from patent publication US6841519B1, “Isoxazoline derivatives and herbicides containing the same as the active ingredient” (Kumiai Chemical Industry Co., Ltd., priority 1999, dated 2005).
